Experimental data as given in the supplement of paper PMC9663587.

What was measured:
[1] = compound: COc1ccc2c(c1)[C@]1(C[C@H]1c1ccc3c(/C=C/c4ccc(CN5C[C@@H](C)O[C@@H](C)C5)cc4)n[nH]c3c1)C(=O)N2
Paclitaxel = compound: CC(=O)O[C@H]1C(=O)[C@@]2(C)[C@H]([C@H](OC(=O)c3ccccc3)[C@]3(O)C[C@H](OC(=O)[C@H](O)[C@@H](NC(=O)c4ccccc4)c4ccccc4)C(C)=C1C3(C)C)[C@]1(OC(C)=O)CO[C@@H]1C[C@@H]2O [Paclitaxel]
Tivantinib/ARQ197 = compound: O=C1NC(=O)[C@@H](c2cn3c4c(cccc24)CCC3)[C@@H]1c1c[nH]c2ccccc12 [Tivantinib/ARQ197]
Ceritinib/LDK378 = compound: Cc1cc(Nc2ncc(Cl)c(Nc3ccccc3S(=O)(=O)C(C)C)n2)c(OC(C)C)cc1C1CCNCC1 [Ceritinib/LDK378]
LEE011/Ribociclib [2] = compound: T1, CN(C)C(=O)c1cc2cnc(Nc3ccc(N4CCNCC4)cn3)nc2n1C1CCCC1 [LEE011/Ribociclib]
Volasertib/BI6727 = compound: CC[C@@H]1C(=O)N(C)c2cnc(Nc3ccc(C(=O)N[C@H]4CC[C@H](N5CCN(CC6CC6)CC5)CC4)cc3OC)nc2N1C(C)C [Volasertib/BI6727]
Taselisib/GDC0032 = compound: Cc1nc(-c2cn3c(n2)-c2ccc(-c4cnn(C(C)(C)C(N)=O)c4)cc2OCC3)n(C(C)C)n1 [Taselisib/GDC0032]
[3] = compound: CCN1CCN(Cc2ccc(Nc3ncc(F)c(-c4cc(F)c5nc(C)n(C(C)C)c5c4)n3)nc2)CC1
THZ531 = compound: CN(C)C/C=C/C(=O)Nc1ccc(C(=O)N2CCC[C@@H](Nc3ncc(Cl)c(-c4c[nH]c5ccccc45)n3)C2)cc1 [THZ531]
Neratinib/HKI272 [4] = compound: T2, CCOc1cc2ncc(C#N)c(Nc3ccc(OCc4ccccn4)c(Cl)c3)c2cc1NC(=O)/C=C/CN(C)C [Neratinib/HKI272]
Pictilisib/GDC0941 = compound: CS(=O)(=O)N1CCN(Cc2cc3nc(-c4cccc5[nH]ncc45)nc(N4CCOCC4)c3s2)CC1 [Pictilisib/GDC0941]
INK128/MLN0128 = compound: CC(C)n1nc(-c2ccc3oc(N)nc3c2)c2c(N)ncnc21 [INK128/MLN0128]
BSJ-03-123 [5] = compound: T3, CC(=O)c1c(C)c2cnc(Nc3ccc(N4CCN(CCOCCOCCOCCNC(=O)COc5cccc6c5C(=O)N(C5CCC(=O)NC5=O)C6=O)CC4)cn3)nc2n(C2CCCC2)c1=O [BSJ-03-123]
ABT-737 = compound: CN(C)CC[C@H](CSc1ccccc1)Nc1ccc(S(=O)(=O)NC(=O)c2ccc(N3CCN(Cc4ccccc4-c4ccc(Cl)cc4)CC3)cc2)cc1[N+](=O)[O-] [ABT-737]
LEE011/Ribociclib [6] = compound: T1, LEE011/Ribociclib; assay: GR value, 72 h; higher = faster growth (1 = untreated, <0 = killing);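 note: breast cancer and non-malignant breast epithelial lines, nine half-log doses, viable cells counted by Hoechst and LIVE/DEAD dye imaging versus time-zero plates and DMSO controls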
[7] = compound: CCN1CCN(Cc2ccc(Nc3ncc(F)c(-c4cc(F)c5nc(C)n(C(C)C)c5c4)n3)nc2)CC1; assay: as above
Neratinib/HKI272 [8] = compound: T2, Neratinib/HKI272; assay: as above
BSJ-03-123 [9] = compound: T3, BSJ-03-123; assay: as above
YKL-5-124 = compound: C=CC(=O)Nc1ccc(C(=O)Nc2[nH]nc3c2CN(C(=O)N[C@H](CN(C)C)c2ccccc2)C3(C)C)cc1 [YKL-5-124]; assay: as above
[10] = compound: CCc1cnn2c(NCc3ccc[n+]([O-])c3)cc(N3CCCC[C@H]3CCO)nc12; assay: as above
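Throughout, for GR50, 72 h: breast cancer and non-malignant breast epithelial cell lines, Deep Dye Drop or Dye Drop imaging, nine half-log doses, GR normalized to time-zero plates and DMSO-only controls.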

BT20
GR50, 72 h [1]: 0.00274 µM | GR50, 72 h (Paclitaxel): 0.00202 µM | GR50, 72 h (Tivantinib/ARQ197): 0.473 µM | GR50, 72 h (Ceritinib/LDK378): 1.53 µM | GR50, 72 h (LEE011/Ribociclib [2]): 0.359 µM | GR50, 72 h (Volasertib/BI6727): 0.00563 µM | GR50, 72 h (Taselisib/GDC0032): 0.0181 µM | GR50, 72 h [3]: 0.0613 µM | GR50, 72 h (THZ531): > 1 µM | GR50, 72 h (Neratinib/HKI272 [4]): 1.27 µM | GR50, 72 h (Pictilisib/GDC0941): 0.904 µM | GR50, 72 h (INK128/MLN0128): 0.0129 µM | GR50, 72 h (BSJ-03-123 [5]): 0.386 µM | GR50, 72 h (ABT-737): > 10 µM | GR value (LEE011/Ribociclib [6]; 0.001 µM): 0.818 GR | GR value (LEE011/Ribociclib [6]; 0.003162 µM): 0.759 GR | GR value (LEE011/Ribociclib [6]; 0.01 µM): 0.624 GR | GR value (LEE011/Ribociclib [6]; 0.03162 µM): 0.672 GR | GR value (LEE011/Ribociclib [6]; 0.1 µM): 0.651 GR | GR value (LEE011/Ribociclib [6]; 0.3162 µM): 0.49 GR | GR value (LEE011/Ribociclib [6]; 1 µM): 0.463 GR | GR value (LEE011/Ribociclib [6]; 3.162 µM): 0.384 GR | GR value (LEE011/Ribociclib [6]; 10 µM): 0.0703 GR | GR value ([7]; 0.001 µM): 0.933 GR | GR value ([7]; 0.003162 µM): 0.9 GR | GR value ([7]; 0.01 µM): 0.69 GR | GR value ([7]; 0.03162 µM): 0.489 GR | GR value ([7]; 0.1 µM): 0.331 GR | GR value ([7]; 0.3162 µM): 0.264 GR | GR value ([7]; 1 µM): 0.231 GR | GR value ([7]; 3.162 µM): 0.163 GR | GR value ([7]; 10 µM): -0.21 GR | GR value (Neratinib/HKI272 [8]; 0.0003162 µM): 1.04 GR | GR value (Neratinib/HKI272 [8]; 0.001 µM): 1.03 GR | GR value (Neratinib/HKI272 [8]; 0.003162 µM): 1.07 GR | GR value (Neratinib/HKI272 [8]; 0.01 µM): 0.976 GR | GR value (Neratinib/HKI272 [8]; 0.03162 µM): 0.918 GR | GR value (Neratinib/HKI272 [8]; 0.1 µM): 0.86 GR | GR value (Neratinib/HKI272 [8]; 0.3162 µM): 0.693 GR | GR value (Neratinib/HKI272 [8]; 1 µM): 0.607 GR | GR value (Neratinib/HKI272 [8]; 3.162 µM): 0.295 GR | GR value (BSJ-03-123 [9]; 0.001 µM): 0.934 GR | GR value (BSJ-03-123 [9]; 0.003162 µM): 0.738 GR | GR value (BSJ-03-123 [9]; 0.01 µM): 0.759 GR | GR value (BSJ-03-123 [9]; 0.03162 µM): 0.7 GR | GR value (BSJ-03-123 [9]; 0.1 µM): 0.664 GR | GR value (BSJ-03-123 [9]; 0.3162 µM): 0.528 GR | GR value (BSJ-03-123 [9]; 1 µM): 0.445 GR | GR value (BSJ-03-123 [9]; 3.162 µM): 0.365 GR | GR value (BSJ-03-123 [9]; 10 µM): 0.0085 GR | GR value (YKL-5-124; 0.001 µM): 0.835 GR | GR value (YKL-5-124; 0.003162 µM): 0.664 GR | GR value (YKL-5-124; 0.01 µM): 0.432 GR | GR value (YKL-5-124; 0.03162 µM): 0.395 GR | GR value (YKL-5-124; 0.1 µM): 0.219 GR | GR value (YKL-5-124; 0.3162 µM): 0.229 GR | GR value (YKL-5-124; 1 µM): 0.13 GR | GR value (YKL-5-124; 3.162 µM): 0.0428 GR | GR value (YKL-5-124; 10 µM): -0.116 GR | GR value ([10]; 0.0001 µM): 0.951 GR | GR value ([10]; 0.0003162 µM): 1.01 GR | GR value ([10]; 0.001 µM): 0.998 GR | GR value ([10]; 0.003162 µM): 1.1 GR | GR value ([10]; 0.01 µM): 0.929 GR | GR value ([10]; 0.03162 µM): -0.235 GR | GR value ([10]; 0.1 µM): -0.645 GR | GR value ([10]; 0.3162 µM): -0.672 GR | GR value ([10]; 1 µM): -0.698 GR

HCC1954
GR50, 72 h [1]: 0.00444 µM | GR50, 72 h (Paclitaxel): 0.0025 µM | GR50, 72 h (Tivantinib/ARQ197): 0.167 µM | GR50, 72 h (Ceritinib/LDK378): 2.33 µM | GR50, 72 h (LEE011/Ribociclib [2]): > 10 µM | GR50, 72 h (Volasertib/BI6727): 0.00659 µM | GR50, 72 h (Taselisib/GDC0032): 0.00701 µM | GR50, 72 h [3]: 0.302 µM | GR50, 72 h (THZ531): 0.362 µM | GR50, 72 h (Neratinib/HKI272 [4]): 0.0672 µM | GR50, 72 h (Pictilisib/GDC0941): 0.944 µM | GR50, 72 h (INK128/MLN0128): 0.0142 µM | GR50, 72 h (BSJ-03-123 [5]): 1.07 µM | GR50, 72 h (ABT-737): 9.94 µM | GR value (LEE011/Ribociclib [6]; 0.001 µM): 0.804 GR | GR value (LEE011/Ribociclib [6]; 0.003162 µM): 0.771 GR | GR value (LEE011/Ribociclib [6]; 0.01 µM): 0.811 GR | GR value (LEE011/Ribociclib [6]; 0.03162 µM): 0.771 GR | GR value (LEE011/Ribociclib [6]; 0.1 µM): 0.655 GR | GR value (LEE011/Ribociclib [6]; 0.3162 µM): 0.609 GR | GR value (LEE011/Ribociclib [6]; 1 µM): 0.654 GR | GR value (LEE011/Ribociclib [6]; 3.162 µM): 0.687 GR | GR value (LEE011/Ribociclib [6]; 10 µM): 0.539 GR | GR value ([7]; 0.001 µM): 1.01 GR | GR value ([7]; 0.003162 µM): 0.941 GR | GR value ([7]; 0.01 µM): 0.844 GR | GR value ([7]; 0.03162 µM): 0.698 GR | GR value ([7]; 0.1 µM): 0.584 GR | GR value ([7]; 0.3162 µM): 0.503 GR | GR value ([7]; 1 µM): 0.36 GR | GR value ([7]; 3.162 µM): 0.193 GR | GR value ([7]; 10 µM): -0.5 GR | GR value (Neratinib/HKI272 [8]; 0.0003162 µM): 1.04 GR | GR value (Neratinib/HKI272 [8]; 0.001 µM): 1.05 GR | GR value (Neratinib/HKI272 [8]; 0.003162 µM): 0.938 GR | GR value (Neratinib/HKI272 [8]; 0.01 µM): 0.859 GR | GR value (Neratinib/HKI272 [8]; 0.03162 µM): 0.533 GR | GR value (Neratinib/HKI272 [8]; 0.1 µM): 0.389 GR | GR value (Neratinib/HKI272 [8]; 0.3162 µM): 0.27 GR | GR value (Neratinib/HKI272 [8]; 1 µM): 0.119 GR | GR value (Neratinib/HKI272 [8]; 3.162 µM): -0.0858 GR | GR value (BSJ-03-123 [9]; 0.001 µM): 0.886 GR | GR value (BSJ-03-123 [9]; 0.003162 µM): 0.859 GR | GR value (BSJ-03-123 [9]; 0.01 µM): 0.812 GR | GR value (BSJ-03-123 [9]; 0.03162 µM): 0.745 GR | GR value (BSJ-03-123 [9]; 0.1 µM): 0.689 GR | GR value (BSJ-03-123 [9]; 0.3162 µM): 0.746 GR | GR value (BSJ-03-123 [9]; 1 µM): 0.558 GR | GR value (BSJ-03-123 [9]; 3.162 µM): 0.473 GR | GR value (BSJ-03-123 [9]; 10 µM): -0.0177 GR | GR value (YKL-5-124; 0.001 µM): 0.224 GR | GR value (YKL-5-124; 0.003162 µM): 0.154 GR | GR value (YKL-5-124; 0.01 µM): 0.0574 GR | GR value (YKL-5-124; 0.03162 µM): 0.0823 GR | GR value (YKL-5-124; 0.1 µM): -0.0214 GR | GR value (YKL-5-124; 0.3162 µM): 0.0013 GR | GR value (YKL-5-124; 1 µM): -0.0774 GR | GR value (YKL-5-124; 3.162 µM): -0.0189 GR | GR value (YKL-5-124; 10 µM): -0.143 GR | GR value ([10]; 0.0001 µM): 0.941 GR | GR value ([10]; 0.0003162 µM): 1.04 GR | GR value ([10]; 0.001 µM): 1.05 GR | GR value ([10]; 0.003162 µM): 1.12 GR | GR value ([10]; 0.01 µM): 0.69 GR | GR value ([10]; 0.03162 µM): -0.352 GR | GR value ([10]; 0.1 µM): -0.474 GR | GR value ([10]; 0.3162 µM): -0.472 GR | GR value ([10]; 1 µM): -0.441 GR
